PubChem BioAssay AID1549 (Sanford-Burnham Center for Chemical Genomics, 2009)
Calls of active or inactive are those of the source. How the calls were made is not given here.

Each molecule was assayed against Influenza A virus M2 proton channel (A/TW/4845/1999 H1N1) (assay: M2 proton channel binding, NMR based, influenza A virus H1N1 strain (AID 1549)). Details: NMR binding screen, M2 protein.

Row | Compound | Kd
1 | CCn1nnc(NC(=O)c2ccccc2Br)n1 | > 4 mM (inactive)
2 | CSc1nc(C)c(Oc2ccccc2)c(=O)n1C | > 4 mM (inactive)
3 | Cc1nc2ccccc2c2c1C(=O)N(C)C2=O | > 4 mM (inactive)
4 | Cc1nn(-c2ccccc2)nc1CO | > 4 mM (inactive)
5 | C[C@H]1O[C@@H](O[C@H]2[C@@H](O)C[C@H](O[C@H]3[C@@H](O)C[C@H](O[C@H]4CC[C@]5(C)C6CC[C@]7(C)[C@@H](C8=CC(=O)OC8)CC[C@]7(O)C6CC[C@@H]5C4)O[C@@H]3C)O[C@@H]2C)C[C@H](O)[C@@H]1O (stereo not given in full) | > 4 mM (inactive)
6 | COc1cccc(=O)c2c(C)n(C)c(C)c12 | > 4 mM (inactive)
7 | Cc1n[nH]c(=O)c2ncn(C)c12 | > 4 mM (inactive)
8 | Nc1nc2n(c1C(=O)c1ccccc1)CCC2 | > 4 mM (inactive)
9 | Nc1cccc(-c2cnco2)c1 | > 4 mM (inactive)
10 | Cc1cc(C(=O)Nc2sc(C)c(C)c2C#N)no1 | > 4 mM (inactive)
11 | O=C(O)CCCCCCCC(=O)O | > 4 mM (inactive)
12 | CN1CCn2c1nc(N1CCCCC1)nc2=O | > 4 mM (inactive)
13 | O=c1ccc2cc(O[C@@H]3O[C@H](CO)[C@@H](O)[C@H](O)[C@H]3O)c(O)cc2o1 | > 4 mM (inactive)
14 | Cn1cc(Cl)c(C(=O)Nc2ccc(F)cc2F)n1 | > 4 mM (inactive)
15 | CC1CCN(C(=O)c2ccc3c(c2)OCCO3)CC1 | > 4 mM (inactive)
16 | O=C1CCN(c2ccccc2)N1 | > 4 mM (inactive)
17 | O=C(O)CN(CCCc1ccccc1)CC(=O)O | > 4 mM (inactive)
18 | O=c1c2ccccc2nc(-c2ccco2)n1-c1nccs1 | > 4 mM (inactive)
19 | Cc1onc(-c2ccccc2)c1C(=O)Nc1ccncc1 | > 4 mM (inactive)
20 | Cc1cc2ncn(S(=O)(=O)N3CCOCC3)c2cc1C | > 4 mM (inactive)
21 | O=c1ccnc(Nc2ccccc2O)[nH]1 | > 4 mM (inactive)
22 | OCC(O)Cc1ccc2c(c1)OCO2 (stereo not given) | > 4 mM (inactive)
23 | CCOC(=O)c1ccc(F)c(F)c1 | > 4 mM (inactive)
24 | COc1cc2c(cc1OC)C1(O)C(=O)c3ccc(O)c(C(=O)O)c3OC1CO2 (stereo not given) | > 4 mM (inactive)

Row | Compound | Kd
25 | O=C(O)CCN1CCc2ccccc2C1c1ccncc1 (stereo not given) | > 4 mM (inactive)
26 | CNC(=O)C(=O)Nc1ccc(F)cc1 | > 4 mM (inactive)
27 | Nc1ncnc2c1ncn2CCOc1ccccc1 | > 4 mM (inactive)
28 | CC(=O)c1cccc(NC2=NCC(C)(C)S2)c1 | > 4 mM (inactive)
29 | NC(=S)NC(=O)CN1C(=O)c2ccccc2C1=O | > 4 mM (inactive)
30 | COC(=O)c1c(C)cc(OC)cc1O | > 4 mM (inactive)
31 | O=C1CCCC(=O)N1c1ccc(O)cc1 | > 4 mM (inactive)
32 | CCOC(=O)Cn1cnc2c1c(=O)[nH]c(=O)n2C | > 4 mM (inactive)
33 | Cc1nnsc1C(=O)Nc1ccccc1[N+](=O)[O-] | > 4 mM (inactive)
34 | Cc1n[nH]c(=O)nc1N1CCN(c2ccccc2)CC1 | > 4 mM (inactive)
35 | Nn1c(CN2CCCCC2)nc2ccccc2c1=O | > 4 mM (inactive)
36 | O=c1c(O)c(-c2ccc(O)cc2O)oc2cc(O)cc(O)c12 | > 4 mM (inactive)
37 | Cc1cc(C)c(C#N)c(N2CCCC2)n1 | > 4 mM (inactive)
38 | N/N=C/c1cccnc1 | > 4 mM (inactive)
39 | Cc1cc(NC(=O)c2ocnc2C)no1 | > 4 mM (inactive)
40 | Cc1nn(C)c2sc(C(=O)O)cc12 | > 4 mM (inactive)
41 | Nc1cccc2nonc12 | > 4 mM (inactive)
42 | CC(C)=CC(=O)Nc1ccccc1Br | > 4 mM (inactive)
43 | C[n+]1ccc(C(=O)[O-])cc1 | > 4 mM (inactive)
44 | COc1cc(-c2coc3cc(O[C@@H]4O[C@H](CO)[C@@H](O)[C@H](O)[C@H]4O)c(OC)c(O)c3c2=O)cc(O)c1OC | > 4 mM (inactive)
45 | O=C(NCc1ccccn1)c1ccc(Cl)cc1Cl | > 4 mM (inactive)
46 | COC(=O)CSc1ncnc2c(C)csc12 | > 4 mM (inactive)
47 | CNC(=O)C(=O)Nc1c(C)cccc1C | > 4 mM (inactive)
48 | COC(=O)c1ccc(Cl)c(NC(C)=O)c1 | > 4 mM (inactive)

Row | Compound | Kd
49 | CC(=O)Oc1ccccc1N1C(=O)C=CC1=O | > 4 mM (inactive)
50 | CN(C)N1C(=O)C2CCCCC2C1=O (stereo not given) | > 4 mM (inactive)
51 | Cc1nc(-c2ccccc2)sc1CN | > 4 mM (inactive)
52 | S=C(c1ccc(N2CCOCC2)cc1)N1CCCCC1 | > 4 mM (inactive)
53 | NC(=O)c1ccsc1NC(=O)c1cccnc1 | > 4 mM (inactive)
54 | CC(=O)N1CCc2ccccc2C1CC(=O)O (stereo not given) | > 4 mM (inactive)
55 | Cc1onc(-c2ccc(F)cc2)c1C(=O)O | > 4 mM (inactive)
56 | O=C(NC1=NCCS1)c1cccc(F)c1 | > 4 mM (inactive)
57 | Cc1nc2[nH]onc2c2nccc(=O)c12 | > 4 mM (inactive)
58 | O=S(=O)(O)c1nc2ccccc2[nH]1 | > 4 mM (inactive)
59 | O=C(Nc1ccc2c(c1)OCO2)c1cccs1 | > 4 mM (inactive)
60 | O=C(Nc1cccc(Cl)c1)c1ccncc1 | > 4 mM (inactive)
61 | CCCCN1C(=O)C2CC/C(=N/O)CC2C1=O (stereo not given) | > 4 mM (inactive)
62 | CCn1nnnc1Oc1ccc(Cl)cc1 | > 4 mM (inactive)
63 | O=c1cc(-c2ccccc2)oc2c(O)c(O)ccc12 | > 4 mM (inactive)
64 | CCC1C(=O)OCC1Cc1cncn1C (stereo not given) | > 4 mM (inactive)
65 | O=c1[nH]nc(Cc2ccccn2)c2ccccc12 | > 4 mM (inactive)
66 | COc1c2ccoc2c(OC)c2oc(=O)ccc12 | > 4 mM (inactive)
67 | CC(C)CCCC(C)C1CCC2C3C[C@@H](O)[C@@]4(O)C[C@@H](O)CC[C@]4(C)C3CC[C@]12C (stereo not given in full) | > 4 mM (inactive)
68 | Nc1ccc2c(c1)N1CCN=C1S2 | > 4 mM (inactive)
69 | CSc1ccc(/C=N/n2c(C)nnc2C)cc1 | > 4 mM (inactive)
70 | COc1ccc(-c2coc3cc(O)ccc3c2=O)c(O)c1O | > 4 mM (inactive)
71 | Cc1ccc(-n2nnnc2SCC(N)=O)c(C)c1 | > 4 mM (inactive)
72 | O=C(NN1CCOCC1)c1ccccc1F | > 4 mM (inactive)

Row | Compound | Kd
73 | Cc1cc(C(=O)Nc2cccnc2)cs1 | > 4 mM (inactive)
74 | COc1ccc(-c2coc3c(O)c(OC)ccc3c2=O)cc1 | > 4 mM (inactive)
75 | CCN1CCc2c(sc(N)c2C(N)=O)C1 | > 4 mM (inactive)
76 | CC(=O)Oc1ccc(/C=C/c2cc(OC(C)=O)cc(OC(C)=O)c2)cc1 | > 4 mM (inactive)
77 | O=c1nc(NCc2ccco2)sc2ncccc12 | > 4 mM (inactive)
78 | CC(=O)O[C@H]1C[C@@]2(C)[C@@H](C[C@@H](O)C3[C@]2(C)CC[C@H]2[C@H](C)[C@H](O)CC[C@]32C)/C1=C(/CCC=C(C)C)C(=O)O (stereo not given in full) | > 4 mM (inactive)
79 | Cc1ccc(C(O)c2nccn2C)o1 (stereo not given) | > 4 mM (inactive)
80 | NS(=O)(=O)c1ccccc1Cl | > 4 mM (inactive)
81 | Cc1nc2ccccc2c(=O)n1NC(=O)Nc1ccccc1 | > 4 mM (inactive)
82 | S=C(Nc1ccc2nccnc2c1)N1CCOCC1 | > 4 mM (inactive)
83 | O=C(CSc1ccnc(=O)[nH]1)NCc1ccco1 | > 4 mM (inactive)
84 | O=C(O)c1ccc(N2CCOCC2)cc1 | > 4 mM (inactive)
85 | O=C(Nc1ccc(Cl)cn1)c1cnn2cccnc12 | > 4 mM (inactive)
86 | CN(C)c1ccc(C2CC(=O)CC(=O)C2)cc1 | > 4 mM (inactive)
87 | COc1cc(C(C)=O)cc(OC)c1O | > 4 mM (inactive)
88 | COc1cc(C/C=C/c2ccccc2)c(OC)cc1O | > 4 mM (inactive)
89 | NC1Cc2ccccc2C1 | > 4 mM (inactive)
90 | NC(=O)c1ccc(C(N)=O)c(-c2ccccc2)c1 | > 4 mM (inactive)
91 | CCOC(=O)C(C)c1n[nH]c(=O)c2ccccc12 (stereo not given) | > 4 mM (inactive)
92 | NC(=O)C1CCN(C(=S)c2ccccc2)CC1 | > 4 mM (inactive)
93 | COc1ccc(-c2nnc(-c3ccc(N)cc3)o2)cc1 | > 4 mM (inactive)
94 | C=C(C)[C@@H]1[C@H]2OC(=O)[C@@H]1[C@]1(O)C[C@H]3O[C@]34C(=O)O[C@H]2[C@]14C | > 4 mM (inactive)
95 | CCC(=O)NC(=S)Nc1ccc(C(N)=O)cc1 | > 4 mM (inactive)
96 | CC(O)c1nc2ccccc2[nH]1 (stereo not given) | > 4 mM (inactive)

Row | Compound | Kd
97 | O=C(O)CCCN1CNC(=S)NC1 | > 4 mM (inactive)
98 | Nc1cccc2c(=O)[nH][nH]c(=O)c12 | > 4 mM (inactive)
99 | Nc1ccn(C2O[C@H](CO)[C@@H](O)[C@H]2O)c(=O)n1 (stereo not given in full) | > 4 mM (inactive)
100 | Nc1ncnc2c1ncn2C1C[C@H](O)[C@@H](CO)O1 (stereo not given in full) | > 4 mM (inactive)
101 | COc1cc(-c2coc3cc(OCc4ccccc4)c(OC)c(O)c3c2=O)cc(O)c1OC | > 4 mM (inactive)
102 | CC(=O)c1c(O)n(C)c(=S)n(C)c1=O | > 4 mM (inactive)
103 | COc1cccc(/C=C2/SC(N)=NC2=O)c1 | > 4 mM (inactive)
104 | Cc1nccc2c1[nH]c1ccccc12 | > 4 mM (inactive)
105 | CN1C(=O)CC[C@H]1c1cccnc1 | > 4 mM (inactive)
106 | c1ccc(CN2CCC3(CC2)Nc2ccccc2CO3)cc1 | > 4 mM (inactive)
107 | O=C(O)[C@H](O)[C@@](O)(Cc1ccc(O)cc1)C(=O)O | > 4 mM (inactive)
108 | Nc1ncnc2c1ncn2C1O[C@H](COP(=O)(O)O)[C@@H](O)[C@H]1O (stereo not given in full) | > 4 mM (inactive)
109 | CCOC(=O)c1sc(SC)c2c1CCCC2O (stereo not given) | > 4 mM (inactive)
110 | CCCCCCCCCCCCCCC(C(=O)OC)C(O)(CC(=O)OC)C(=O)OC (stereo not given) | > 4 mM (inactive)
111 | O=C(O)C1CSC(c2cccnc2)N1 (stereo not given) | > 4 mM (inactive)
112 | CCOc1ccc2nc(NS(C)(=O)=O)sc2c1 | > 4 mM (inactive)
113 | CC(=O)NC1=NN(c2ccccc2)C(=O)C1 | > 4 mM (inactive)
114 | S=c1[nH]c2cccnc2[nH]1 | > 4 mM (inactive)
115 | NCc1ccc(-c2ccccn2)s1 | > 4 mM (inactive)
116 | O=C1CN2C(=N1)N(Cc1ccccc1)c1ccccc12 | > 4 mM (inactive)
117 | O=C(Nc1nnc(C(F)(F)F)s1)c1cccnc1 | > 4 mM (inactive)
118 | COc1ccc(/C=C2\NC(=S)N(C)C2=O)cc1O | > 4 mM (inactive)
119 | Cn1nc(C(=O)N2CCCC2)c2ccccc2c1=O | > 4 mM (inactive)
120 | Cc1n[nH]c(C)c1NC(=O)c1cccc(F)c1 | > 4 mM (inactive)
